For this assay, the target named is T1, RORc ligand binding domain (Homo sapiens, UniProt P51449).
T1 construct: host or cells: E. coli
T1 sequence (P51449 269-508 limits assumed): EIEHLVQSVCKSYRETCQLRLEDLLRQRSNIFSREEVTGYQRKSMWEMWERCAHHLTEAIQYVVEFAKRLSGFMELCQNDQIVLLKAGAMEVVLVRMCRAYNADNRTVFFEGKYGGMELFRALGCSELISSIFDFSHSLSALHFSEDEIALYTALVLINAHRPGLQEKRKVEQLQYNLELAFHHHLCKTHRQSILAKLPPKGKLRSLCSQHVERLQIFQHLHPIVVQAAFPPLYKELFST
Put plainly: In Vitro RORc Ligand Binding Assay (25-[3H]hydroxycholesterol radioligand filtration). The following applies: read-out: RORc IC50.

[1] abbreviates: In Vitro RORc Ligand Binding Assay, Table 4.

Molecules are shown by their SMILES. Read-outs that look alike come from different tables or passages of the source.

Regarding `C[C@@H]1CCC(c2ccccc2)S(=O)(=O)N1Cc1ccc(OC2CCN(S(C)(=O)=O)CC2)cc1F` (stereo partly drawn) [Example 53, 2-(2-fluoro-4-((1-(methylsulfonyl)piperidin-4-yl)oxy)benzyl)-(3R)-3-methyl-6-phenyl-1,2-thiazinane 1,1-dioxide], under setting [1], the IC50 stood at 0.006 µM.

`C[C@H]1CCC(c2ccccc2)S(=O)(=O)N1Cc1ccc(N2CCn3nccc3C2)cc1F` (single isomer, unassigned) [Example 134]: the IC50 under setting [1] amounted to 0.33 µM. With `C[C@H]1CCC(c2ccccc2)S(=O)(=O)N1Cc1ccc(OC2CCN(S(C)(=O)=O)CC2)cc1` (single isomer, unassigned) [Example 44], the IC50 under setting [1] came out at 0.014 µM.

Consider `C[C@H]1CCC(c2ccccc2)S(=O)(=O)N1Cc1ccc(NCC2CCOCC2)cc1F` (stereo partly drawn) [Example 445, [3-Fluoro-4-((3S)-methyl-1,1-dioxo-6-phenyl-[1,2]thiazinan-2-ylmethyl)-phenyl]-(tetrahydro-pyran-4-ylmethyl)-amine], for which the IC50 is 0.025 µM. Regarding `CC[C@H]1CCC(c2ccccc2)S(=O)(=O)N1Cc1ccc(N2CCC(n3cnnc3)CC2)cc1F` (single isomer, unassigned) [Example 229], the IC50 under setting [1] worked out at 0.168 µM.

For the molecule `COc1ccccc1C1CC[C@H](C)N(Cc2ccc(N3CCN(C(C)=O)CC3)cc2F)S1(=O)=O` (single isomer, unassigned) [Example 223], the IC50 under setting [1] amounted to 0.135 µM.

For `C[C@H]1CCC(c2ccccc2)S(=O)(=O)N1Cc1ccc(N2CCNCC2)cc1F` (single isomer, unassigned) [Example 96], under setting [1], the IC50 was 4.48 µM. Turning to `C[C@H]1CCC(c2ccccc2)S(=O)(=O)N1Cc1ccc(C(=O)NC2CCC(O)C2)cc1` (single isomer, unassigned) [Example 410], the IC50 amounted to 6.5 µM. Still for that read-out and setting: under `C[C@H]1CCC(c2ccccc2)S(=O)(=O)N1Cc1ccc(N2CC(n3cnnc3)C2)cc1F` (stereo partly drawn) [Example 428, 2-[2-Fluoro-4-(3-[1,2,4]triazol-4-yl-azetidin-1-yl)-benzyl]-(3S)-methyl-6-phenyl-[1,2]thiazinane 1,1-dioxide] stands 0.088 µM. With `C[C@H]1CCC(c2ccccc2)S(=O)(=O)N1Cc1ccc(N[C@H]2CC[C@H](n3cnnc3)CC2)cc1F` (stereo partly drawn) [Example 232, [3-Fluoro-4-((3S)-methyl-1,1-dioxo-6-phenyl-[1,2]thiazinan-2-ylmethyl)-phenyl]-(4-[1,2,4]triazol-4-yl-cyclohexyl)-amine], the concentration for half-maximal inhibition (IC50) under setting [1] was determined as 0.275 µM. Same read-out and setting: under `C[C@H](O)C(=O)N1CCN(c2ccc(CN3CCCCC(c4ccccc4)S3(=O)=O)cc2)CC1` (single isomer, unassigned) [Example 311, 1-{4-[4-(1,1-Dioxo-7-phenyl-[1,2]thiazepan-2-ylmethyl)-phenyl]-piperazin-1-yl}-2-hydroxy-propan-1-one] stands 0.898 µM; under `C[C@H]1CCC(c2ccccc2)S(=O)(=O)N1Cc1ccc(C(=O)N2CC(c3cc[nH]n3)C2)cc1` (stereo partly drawn) [Example 297, [4-((3S)-Methyl-1,1-dioxo-6-phenyl-[1,2]thiazinan-2-ylmethyl)-phenyl]-[3-(1H-pyrazol-3-yl)-azetidin-1-yl]-methanone], 2.69 µM; under `C[C@H]1CCC(c2ccccc2)S(=O)(=O)N1Cc1ccc(C(=O)N2CCS(=O)(=O)CC2)cc1` (stereo partly drawn) [Example 398, (1,1-Dioxo-1-thiomorpholin-4-yl)-[4-((3S)-methyl-1,1-dioxo-6-phenyl-[1,2]thiazinan-2-ylmethyl)-phenyl]-methanone], 5.71 µM. With `C[C@H]1CCC(c2ccccc2)S(=O)(=O)N1Cc1ccc(C(=O)N2CCN(C)C(=O)C2)cc1` (stereo partly drawn) [Example 363, 1-Methyl-4-[4-((3S)-methyl-1,1-dioxo-6-phenyl-[1,2]thiazinan-2-ylmethyl)-benzoyl]-piperazin-2-one], under setting [1], the 50% inhibitory concentration (IC50) is 2.43 µM. As to `C[C@H]1CCC(c2ccccc2)S(=O)(=O)N1Cc1ccc(N2CCCNCC2)cc1F` (single isomer, unassigned) [Example 88], the IC50 under setting [1] worked out at 0.819 µM. Regarding `CC(=O)N1CCN(c2ccc(CN3[C@@H](C)CCC(c4cccc(C)c4)S3(=O)=O)c(F)c2)CC1` (single isomer, unassigned) [Example 193], the IC50 under setting [1] was determined as 0.024 µM.

Usually IC50 stands for the point on the concentration scale where inhibition reaches its midpoint.

(Values after US9115101B2 (Genentech, Inc., priority 2012, dated 2015).)
